Earlier results as cited in patent publication US20130273137A1, “DRUG DELIVERY COATING AND DEVICES” (MASSACHUSETTS EYE & EAR INFIRMARY, priority 2010, published 2013).

System: S. aureus
Settings: native MIC

CN[C@H](CC(C)C)C(=O)N[C@H]1C(=O)N[C@@H](CC(N)=O)C(=O)N[C@H]2C(=O)N[C@H]3C(=O)N[C@H](C(=O)N[C@H](C(=O)O)c4cc(O)cc(O)c4-c4cc3ccc4O)[C@H](O)c3ccc(c(Cl)c3)Oc3cc2cc(c3O[C@@H]2O[C@H](CO)[C@@H](O)[C@H](O)[C@H]2O[C@H]2C[C@](C)(N)[C@H](O)[C@H](C)O2)Oc2ccc(cc2Cl)[C@H]1O [vancomycin]
minimum inhibitory concentration of vancomycin against S. aureus: 0.5 to 2 µg/mL
